Measured values: PubChem BioAssay AID651761 (The Scripps Research Institute Molecular Screening Center, 2012)
“And” between values parts separate entries of the source, which are not always exact repeats. Equal entries are not always repeated. The source made the active and inactive calls. How the calls were made is not given here.

Biological target: Perilipin-5 (Homo sapiens) + 1-acylglycerol-3-phosphate O-acyltransferase ABHD5 (Homo sapiens) (UniProt Q00G26+Q8WTS1)
Assay: blockers of ABHD5 binding to perilipin-5 – biochemical, luminescence, late-stage follow-up (AID 651761)
Details: biochemical ABHD5-PLIN5 interaction

Sequence of Perilipin-5 (Homo sapiens) + 1-acylglycerol-3-phosphate O-acyltransferase ABHD5 (Homo sapiens) (Q00G26 whole entry, looked up): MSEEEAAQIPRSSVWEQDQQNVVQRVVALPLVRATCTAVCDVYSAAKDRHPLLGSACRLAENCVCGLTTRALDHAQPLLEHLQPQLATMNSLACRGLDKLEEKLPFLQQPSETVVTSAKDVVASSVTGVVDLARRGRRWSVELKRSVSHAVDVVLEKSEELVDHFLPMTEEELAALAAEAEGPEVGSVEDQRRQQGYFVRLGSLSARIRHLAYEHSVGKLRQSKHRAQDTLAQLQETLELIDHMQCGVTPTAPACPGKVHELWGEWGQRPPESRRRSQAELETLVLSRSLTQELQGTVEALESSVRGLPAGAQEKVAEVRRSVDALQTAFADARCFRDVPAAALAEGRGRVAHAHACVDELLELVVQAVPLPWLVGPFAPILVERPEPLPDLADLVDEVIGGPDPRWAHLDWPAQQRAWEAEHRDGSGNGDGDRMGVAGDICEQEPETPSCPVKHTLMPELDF
Sequence of Perilipin-5 (Homo sapiens) + 1-acylglycerol-3-phosphate O-acyltransferase ABHD5 (Homo sapiens) (Q8WTS1 whole entry, looked up): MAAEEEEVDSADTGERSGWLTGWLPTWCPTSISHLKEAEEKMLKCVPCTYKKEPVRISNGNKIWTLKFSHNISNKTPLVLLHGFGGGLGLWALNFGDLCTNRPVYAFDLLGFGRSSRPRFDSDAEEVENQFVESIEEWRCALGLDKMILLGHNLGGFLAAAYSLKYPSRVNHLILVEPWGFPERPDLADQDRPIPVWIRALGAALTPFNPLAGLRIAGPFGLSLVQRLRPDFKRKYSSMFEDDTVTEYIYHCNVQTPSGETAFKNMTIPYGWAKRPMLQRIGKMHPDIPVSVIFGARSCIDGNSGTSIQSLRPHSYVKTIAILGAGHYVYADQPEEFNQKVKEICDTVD

Question: Which IC50 does the source give for `CC1CCN(S(=O)(=O)c2ccc(NC(=O)Cc3ccccc3)cc2)CC1` here?
Answer: 8.77 µM

Question: `Cc1ccc2c(CC(=O)N3CCN(S(=O)(=O)c4ccc5c(c4)OCCO5)CC3)coc2c1` was tested. Which IC50 did it give?
Answer: 5 µM and 5.03 µM

Question: `COc1ccccc1-c1cc(C(=O)NC2CCN(C)CC2)c2ccc(Cl)c(C)c2n1` was tested. Which IC50 did it give?
Answer: inactive

Question: `CC(=O)Cc1cc(O)c2ccccc2c1OC(=O)c1ccccc1` was tested. Which IC50 did it give?
Answer: 1.52 µM

Question: For `CCOC(=O)c1c(NC(C)=O)sc2c1CCC(C=O)=C2Sc1ccccc1`, which IC50 is on record?
Answer: 1.79 µM

Question: With `Cc1cc(C)c(NC(=O)CN2CCN3CCCC3C2)c(C)c1` (stereo unspecified) as the molecule, how does the IC50 read?
Answer: inactive

Question: For `CC(CCc1ccco1)NC(=O)CCc1nnc2ccc(NCc3ccccc3Cl)nn12` (stereo unspecified), which IC50 is on record?
Answer: 1.01 µM

Question: Which IC50 does the source give for `CC(=O)Oc1ccc(C23c4ccccc4C2(OC(C)=O)c2cc(OC(C)=O)ccc23)cc1` (stereo unspecified) here?
Answer: > 39.8 µM (inactive)

Question: With `COc1cc2c(cc1OC)C(C)N(CCc1ccc(Cl)cc1)CC2` (stereo unspecified) as the molecule, how does the IC50 read?
Answer: inactive

Question: `COc1cc(C)c2sc3ccccc3c(=O)c2c1NCCN(C)C` was tested. Which IC50 did it give?
Answer: > 39.8 µM (inactive)

Question: How did the IC50 turn out when `CN(C)CCCN(C(=O)CCc1ccccc1)c1nc2ccc(Cl)cc2s1` was run?
Answer: 7.07 µM

Question: For `CN(C)CCOC1(Cc2ccc(F)cc2)CCC(C(C)(C)C)CC1` (stereo unspecified), which IC50 is on record?
Answer: > 39.8 µM (inactive)

Question: Which IC50 does the source give for `CCCCNC(=O)Nc1ccc2c(c1)N(C)C(=O)c1ccccc1S2` here?
Answer: 3.02 µM

Question: Which IC50 does the source give for `CCN(CC)CCOc1ccc(/C(=C(/Cl)c2ccccc2)c2ccccc2)cc1` here?
Answer: 1.11 µM

Question: For `NC(=NCCCCCCN=C(N)/N=C(\N)Nc1ccc(Cl)cc1)/N=C(\N)Nc1ccc(Cl)cc1`, which IC50 is on record?
Answer: 2.64 µM

Question: With `FC(F)(F)c1cccc(NC(=S)N(CCCN2CCCC2)Cc2cccn2Cc2ccc(Cl)cc2)c1` as the molecule, how does the IC50 read?
Answer: inactive

Question: Which IC50 does the source give for `CCN(CC)CCNC(=O)c1ccc(NC(=O)c2cn(-c3ccccc3)nc2-c2cccs2)cc1` here?
Answer: inactive

Question: With `CC(=O)Nc1ccc(S(=O)(=O)N2c3ccc(F)cc3CCC2C)cc1` (stereo unspecified) as the molecule, how does the IC50 read?
Answer: 6.48 µM

Question: With `CC1Sc2ccc(S(=O)(=O)N3CCC(C(=O)NCc4ccc(Cl)cc4)CC3)cc2NC1=O` (stereo unspecified) as the molecule, how does the IC50 read?
Answer: 8.56 µM

Question: For `CC(C)c1ccc(N2C=Nc3ccc(C(C)C)cc3C2)cc1`, which IC50 is on record?
Answer: 1.56 µM

Question: Which IC50 does the source give for `CCN(CC)CCC(C)OC(c1ccccc1)c1ccccc1` (stereo unspecified) here?
Answer: 1.79 µM

Question: Which IC50 does the source give for `C=C[C@]1(C)C[C@@H](OC(=O)CSCCN(CC)CC)[C@]2(C)C(C)CC[C@]3(CCC(=O)[C@H]32)[C@@H](C)[C@@H]1O` (stereo partly specified) here?
Answer: 8.02 µM

Question: For `Cc1nc2c(o1)CCc1ccccc1C2N1CCN(C)CC1` (stereo unspecified), which IC50 is on record?
Answer: 2.75 µM

Question: `CN1CCC(=C2c3ccccc3CC(=O)c3sccc32)CC1` was tested. Which IC50 did it give?
Answer: > 39.8 µM (inactive)

Question: Which IC50 does the source give for `Cc1cc(C)c2nc(NNC(=O)c3ccc(S(=O)(=O)N4CCCC(C)C4)cc3)sc2c1` (stereo unspecified) here?
Answer: 4.11 µM

Question: For `O=C(C[n+]1cccc(CNC(=O)c2ccc(OC(F)F)cc2)c1)Nc1cccc(C(F)(F)F)c1`, which IC50 is on record?
Answer: inactive

Question: For `Cc1cc(C)c(NC(=O)C[N+](C)(C)CC(O)COc2cccc3ccccc23)c(C)c1` (stereo unspecified), which IC50 is on record?
Answer: 4.32 µM

Question: For `COc1cc(OC)cc(C(=O)NC(=S)N(Cc2ccccc2)C(C)C)c1`, which IC50 is on record?
Answer: 1.44 µM

Question: With `COCCN(CCOC)c1nc(N)c2c(N)nc3c(c2c1C#N)CC(=O)N3Cc1ccc(Cl)cc1` as the molecule, how does the IC50 read?
Answer: > 39.8 µM (inactive)

Question: How did the IC50 turn out when `CC(=O)Cc1cc(O)c2ccccc2c1OC(=O)c1ccc(Br)cc1` was run?
Answer: 2.68 µM

Question: With `CCCNC(=O)Nc1ccc2c(c1)N(C)C(=O)c1ccccc1S2` as the molecule, how does the IC50 read?
Answer: 7.42 µM

Question: Which IC50 does the source give for `CC1CCN(S(=O)(=O)c2ccc(NC(=O)Cc3cccs3)cc2)CC1` here?
Answer: 8.64 µM

Question: Which IC50 does the source give for `O=c1[nH]c(C2CCN(S(=O)(=O)c3ccc(F)cc3)CC2)nc2c1nnn2Cc1ccc2c(c1)OCCO2` here?
Answer: inactive

Question: Which IC50 does the source give for `COc1ccc(C)c2sc(N(CCN(C)C)C(=O)/C=C/c3cccs3)nc12` here?
Answer: 6.96 µM

Question: For `O=c1[nH]c(C2CCN(S(=O)(=O)c3ccc(S(=O)(=O)NC4CC4)cc3)CC2)nc2c1nnn2Cc1ccc(F)cc1`, which IC50 is on record?
Answer: 3.42 µM

Question: For `CCOC(=O)c1c(NC(=O)/C=C/C(=O)O)sc(C)c1-c1ccc(C(C)(C)C)cc1`, which IC50 is on record?
Answer: 5.05 µM

Question: How did the IC50 turn out when `CC1=CC(C)(C)Nc2ccc(OC(=O)C(C)N3C(=O)c4ccccc4C3=O)cc21` (stereo unspecified) was run?
Answer: 3.02 µM

Question: How did the IC50 turn out when `CCN(CC)CCN(CC(=O)Nc1c(C)cc(C)cc1C)C(=O)c1ccccc1` was run?
Answer: 5.67 µM

Question: `COc1ccc(NC(=S)N(CCCN2CCCC2)Cc2cccn2Cc2ccc(Cl)cc2)cc1Cl` was tested. Which IC50 did it give?
Answer: inactive

Question: Which IC50 does the source give for `Cc1ccc2nc3cc([N+](=O)[O-])cc([N+](=O)[O-])c3cc2c1` here?
Answer: 0.619 µM

Question: With `CCN(CC)CCOCCOC(=O)C1(c2ccccc2)CCCC1` as the molecule, how does the IC50 read?
Answer: 0.985 µM

Question: Which IC50 does the source give for `CCOc1cc(N)c(Cl)cc1C(=O)NCC1CN(Cc2ccc(F)cc2)CCO1` (stereo unspecified) here?
Answer: 1.34 µM

Question: `CN(C)CCN(Cc1ccco1)c1ccccn1` was tested. Which IC50 did it give?
Answer: > 39.8 µM (inactive)

Question: How did the IC50 turn out when `CCCCOC(=O)Nc1cc(C(=O)OC)ccc1C(=O)OC` was run?
Answer: 5.26 µM

Question: `CN(C)CCCN(C(=O)CCc1ccccc1)c1nc2ccc(Br)cc2s1` was tested. Which IC50 did it give?
Answer: 8.16 µM

Question: With `O=C(/C(=C/O)N=Nc1ccc(Cl)cc1)c1ccncc1` as the molecule, how does the IC50 read?
Answer: 9.67 µM
